The results in this text go back to patent US4349685A (priority 1981, dated 1982).

Structures are written as SMILES.

In test [1] the test system is causative organism of wheat leaf rust. In words: Control of wheat leaf rust by aqueous suspension of the compound. The test is classed as in vivo. Conditions: 300 parts per million by weight, sole compound.
The subject of test [2] is causative organism of downey mildew. In words: Control of downey mildew on host plants (root drench and foliar treatment). The class given is in vivo. The settings on record: 500 parts per million by weight solution; root system application and foliar treatment of host plants. The source says:
Solutions containing 500 parts per million by weight of the compound were formulated and applied to the host plants through two different modes of administration. First, the solution was applied to the root system of the host plants by drenching the chemicals into the pots or by placing the pots into larger cups containing the solution of the compound. Second, a foliar chemical treatment was applied to the host plants. The plants were then exposed to the pathogen and placed under conditions suitable for infection and development of the disease.

On to `CCC(=O)OCCNC(=O)Oc1ccc2oc(=O)sc2c1` [Example 1, 5-[2-(Propionyloxy)ethylcarbamoyloxy]-1,3-benzoxathiol-2-one], for which, in test [1], the “kill of the causative organism of wheat leaf rust” value is on record as “substantially complete kill”.

With `CCc1cccc(NC(=O)Oc2ccc3oc(=O)sc3c2)c1` [Example 4, 5-[(3-Ethylphenyl)carbamoyloxy]-1,3-benzoxathiol-2-one], the “control of the causative organism of downey mildew” value in test [2] is 90%.
